Results published in PMC5218480 (PLoS ONE, 2017).

Tested on: MV-4-11 cells
Test: Gene expression microarray analysis (Affymetrix PrimeView) and GSEA
Assay type: cell-based, human
Design: RFU PODN (11730768_x_at) / Fold change /veh PODN (11730768_x_at) / RFU LINC00158 (11744669_a_at) / Fold change /veh LINC00158 (11744669_a_at) / RFU DUSP10 (11751237_a_at) / Fold change /veh DUSP10 (11751237_a_at) / RFU ID3 (11757404_x_at) / Fold change /veh ID3 (11757404_x_at) / RFU PLEKHG5 (11737974_s_at) / Fold change /veh PLEKHG5 (11737974_s_at) / RFU LRRC4B (11730491_at) / Fold change /veh LRRC4B (11730491_at) / RFU GIMAP4 (11747438_a_at) / Fold change /veh GIMAP4 (11747438_a_at) / RFU KRT8 (11758183_x_at) / Fold change /veh KRT8 (11758183_x_at) / RFU CNN1 (11734310_a_at) / Fold change /veh CNN1 (11734310_a_at) / RFU VPS37D (11726825_at) / Fold change /veh VPS37D (11726825_at) / RFU C10orf10 (11716522_x_at) / Fold change /veh C10orf10 (11716522_x_at) / RFU KIR2DL2 /// KIR2DL4 /// KIR2DL5A /// KIR2DL5B /// KIR2DS1 /// KIR2DS2 /// KIR2DS3 /// KIR2DS4 /// KIR3DL3 /// KIR3DL3 /// KIR3DS1 (11738374_at) / Fold change /veh KIR2DL2 /// KIR2DL4 /// KIR2DL5A /// KIR2DL5B /// KIR2DS1 /// KIR2DS2 /// KIR2DS3 /// KIR2DS4 /// KIR3DL3 /// KIR3DL3 /// KIR3DS1 (11738374_at) / RFU C1QL1 (11718748_at) / Fold change /veh C1QL1 (11718748_at) / RFU TMPRSS4 (11747572_a_at) / Fold change /veh TMPRSS4 (11747572_a_at) / RFU HAMP (11756126_x_at) / Fold change /veh HAMP (11756126_x_at) / RFU RNFT2 (11725882_a_at) / Fold change /veh RNFT2 (11725882_a_at) / RFU NR4A2 (11747474_a_at) / Fold change /veh NR4A2 (11747474_a_at) / RFU ABCC12 (11746883_a_at) / Fold change /veh ABCC12 (11746883_a_at) / RFU TMEM136 (11760407_x_at) / Fold change /veh TMEM136 (11760407_x_at) / RFU CLDN22 /// WWC2 (11732394_at) / Fold change /veh CLDN22 /// WWC2 (11732394_at) / RFU HLA-DPB1 (11760878_x_at) / Fold change /veh HLA-DPB1 (11760878_x_at) / RFU SPINT1 (11716480_a_at) / Fold change /veh SPINT1 (11716480_a_at) / RFU GAP43 (11754022_s_at) / Fold change /veh GAP43 (11754022_s_at) / RFU A4GNT (11735810_at) / Fold change /veh A4GNT (11735810_at) / RFU PRB3 (11715151_x_at) / Fold change /veh PRB3 (11715151_x_at) / RFU TUBB4B (11761932_at) / Fold change /veh TUBB4B (11761932_at) / RFU CAPN14 (11732068_a_at) / Fold change /veh CAPN14 (11732068_a_at) / RFU TMCC2 (11721928_a_at) / Fold change /veh TMCC2 (11721928_a_at) / RFU IRGQ (11745062_a_at) / Fold change /veh IRGQ (11745062_a_at) / RFU FAM174B (11720279_a_at) / Fold change /veh FAM174B (11720279_a_at) / RFU TMPRSS4 (11748680_a_at) / Fold change /veh TMPRSS4 (11748680_a_at) / RFU FAM212B (11763350_a_at) / Fold change /veh FAM212B (11763350_a_at) / RFU PLEKHG5 (11743358_a_at) / Fold change /veh PLEKHG5 (11743358_a_at) / RFU ZSCAN30 (11745921_a_at) / Fold change /veh ZSCAN30 (11745921_a_at) / RFU CMKLR1 (11741424_a_at) / Fold change /veh CMKLR1 (11741424_a_at) / RFU LOC101060620 /// MAPK8IP1 (11723275_at) / Fold change /veh LOC101060620 /// MAPK8IP1 (11723275_at) / RFU SPTSSB (11747773_x_at) / Fold change /veh SPTSSB (11747773_x_at) / RFU PRSS12 (11739890_at) / Fold change /veh PRSS12 (11739890_at) / RFU BIN1 (11741810_x_at) / Fold change /veh BIN1 (11741810_x_at) / RFU WNT11 (11732464_a_at) / Fold change /veh WNT11 (11732464_a_at) / RFU C10orf10 (11716521_a_at) / Fold change /veh C10orf10 (11716521_a_at) / RFU C5orf56 (11738089_at) / Fold change /veh C5orf56 (11738089_at) / RFU CYB561 (11721691_x_at) / Fold change /veh CYB561 (11721691_x_at) / RFU ANKRD19P (11752326_a_at) / Fold change /veh ANKRD19P (11752326_a_at) / RFU OR2T12 /// OR2T33 /// OR2T8 (11738714_s_at) / Fold change /veh OR2T12 /// OR2T33 /// OR2T8 (11738714_s_at) / RFU VCAN (11748164_a_at) / Fold change /veh VCAN (11748164_a_at) / RFU JSRP1 (11732532_at) / Fold change /veh JSRP1 (11732532_at) / RFU KRTAP10-11 (11738290_x_at) / Fold change /veh KRTAP10-11 (11738290_x_at) / RFU MYO3A (11730013_a_at) / Fold change /veh MYO3A (11730013_a_at) / RFU EBF3 (11725865_a_at) / Fold change /veh EBF3 (11725865_a_at) / RFU CAMK2N1 (11719241_x_at) / Fold change /veh CAMK2N1 (11719241_x_at) / RFU C5orf56 (11738088_a_at) / Fold change /veh C5orf56 (11738088_a_at) / RFU OLFML3 (11715873_a_at) / Fold change /veh OLFML3 (11715873_a_at) / RFU LOC100653217 /// NTM (11731650_a_at) / Fold change /veh LOC100653217 /// NTM (11731650_a_at) / RFU MAPK11 (11762145_a_at) / Fold change /veh MAPK11 (11762145_a_at) / RFU FIZ1 (11724087_x_at) / Fold change /veh FIZ1 (11724087_x_at) / RFU OASL (11726364_x_at) / Fold change /veh OASL (11726364_x_at) / RFU SOX15 (11748057_x_at) / Fold change /veh SOX15 (11748057_x_at) / RFU CD79A (11719716_a_at) / Fold change /veh CD79A (11719716_a_at) / RFU HIST1H1D (11736915_at) / Fold change /veh HIST1H1D (11736915_at) / RFU CASKIN2 (11723855_a_at) / Fold change /veh CASKIN2 (11723855_a_at) / RFU LOC730098 (11760151_x_at) / Fold change /veh LOC730098 (11760151_x_at) / RFU OR4N2 (11742367_at) / Fold change /veh OR4N2 (11742367_at) / RFU PRRT2 (11749266_a_at) / Fold change /veh PRRT2 (11749266_a_at) / RFU SNX32 (11753110_a_at) / Fold change /veh SNX32 (11753110_a_at) / RFU CDHR5 (11726645_a_at) / Fold change /veh CDHR5 (11726645_a_at) / RFU RCAN1 (11760418_a_at) / Fold change /veh RCAN1 (11760418_a_at) / RFU FAM167A (11723789_a_at) / Fold change /veh FAM167A (11723789_a_at) / RFU FAM26E (11764081_at) / Fold change /veh FAM26E (11764081_at) / RFU ISYNA1 (11749810_s_at) / Fold change /veh ISYNA1 (11749810_s_at) / RFU ACY1 (11761880_at) / Fold change /veh ACY1 (11761880_at) / RFU 11764098_at / Fold change /veh 11764098_at / RFU SAMD14 (11745864_x_at) / Fold change /veh SAMD14 (11745864_x_at) / RFU NPB (11741838_a_at) / Fold change /veh NPB (11741838_a_at) / RFU TMPRSS6 (11731388_a_at) / Fold change /veh TMPRSS6 (11731388_a_at) / RFU KRTAP10-2 (11738614_at) / Fold change /veh KRTAP10-2 (11738614_at) / RFU ARHGAP8 /// PRR5-ARHGAP8 (11727945_x_at) / Fold change /veh ARHGAP8 /// PRR5-ARHGAP8 (11727945_x_at) / RFU KRTAP5-7 /// NADSYN1 (11734609_at) / Fold change /veh KRTAP5-7 /// NADSYN1 (11734609_at) / RFU RASL12 (11751679_a_at) / Fold change /veh RASL12 (11751679_a_at) / RFU CDKN2B (11736163_a_at) / Fold change /veh CDKN2B (11736163_a_at) / RFU PRF1 (11729649_at) / Fold change /veh PRF1 (11729649_at) / RFU, ZNF638 /// ZNF638-IT1 / Fold change vs veh, ZNF638 /// ZNF638-IT1 / RFU, PANK3 / Fold change vs veh, PANK3 / RFU, SH3YL1 / Fold change vs veh, SH3YL1 / RFU, ZEB2 / Fold change vs veh, ZEB2 / RFU, NRIP1 / Fold change vs veh, NRIP1 / RFU, PTTG1IP / Fold change vs veh, PTTG1IP / RFU, CAPN2 / Fold change vs veh, CAPN2 / RFU, MED14 / Fold change vs veh, MED14 / RFU, SNORA58 / Fold change vs veh, SNORA58 / RFU, C1orf63 / Fold change vs veh, C1orf63 / RFU, LRRFIP1 / Fold change vs veh, LRRFIP1 / RFU, NDUFAF7 / Fold change vs veh, NDUFAF7 / RFU, SLC12A2 / Fold change vs veh, SLC12A2 / RFU, IBTK / Fold change vs veh, IBTK / RFU, ESF1 / Fold change vs veh, ESF1 / Fold change vs veh, TMEM50B / RFU, TAOK1 / Fold change vs veh, TAOK1 / RFU, ACBD3 / Fold change vs veh, ACBD3 / RFU, TMA16 / Fold change vs veh, TMA16 / RFU, RWDD3 / Fold change vs veh, RWDD3 / RFU, BCAT1 / Fold change vs veh, BCAT1 / RFU, EDEM3 / Fold change vs veh, EDEM3 / RFU, TMEM33 / Fold change vs veh, TMEM33 / RFU, WDR75 / Fold change vs veh, WDR75 / RFU, AHCTF1 / Fold change vs veh, AHCTF1 / RFU, TFRC / Fold change vs veh, TFRC / RFU, ZDHHC17 / Fold change vs veh, ZDHHC17 / RFU, NOM1 / Fold change vs veh, NOM1 / RFU, ARL8B / Fold change vs veh, ARL8B / RFU, ZBTB11 / Fold change vs veh, ZBTB11 / RFU, TAMM41 / Fold change vs veh, TAMM41 / RFU, KIAA1704 /// LOC100996395 / Fold change vs veh, KIAA1704 /// LOC100996395 / RFU, ING1 / Fold change vs veh, ING1 / RFU, TRMT61B / Fold change vs veh, TRMT61B / RFU, FUBP3 / Fold change vs veh, FUBP3 / RFU, TP53 / Fold change vs veh, TP53 / RFU, TNKS2 / Fold change vs veh, TNKS2 / RFU, ZFP14 / Fold change vs veh, ZFP14 / RFU, ACTR2 / Fold change vs veh, ACTR2 / RFU, PPP3R1 / Fold change vs veh, PPP3R1 / RFU, PIK3R1 / Fold change vs veh, PIK3R1 / RFU, HNRNPA1 / Fold change vs veh, HNRNPA1 / RFU, RNF170 / Fold change vs veh, RNF170 / RFU, ZNF28 / Fold change vs veh, ZNF28 / RFU, RNGTT / Fold change vs veh, RNGTT / RFU, OGT / Fold change vs veh, OGT / RFU, BRD1 / Fold change vs veh, BRD1 / RFU, MARS / Fold change vs veh, MARS / RFU, ZNF655 / Fold change vs veh, ZNF655 / RFU, FAHD1 / Fold change vs veh, FAHD1 / RFU, BDP1 / Fold change vs veh, BDP1 / RFU, LRRCC1 / Fold change vs veh, LRRCC1 / RFU, ARID1A / Fold change vs veh, ARID1A / RFU, ZNF146 / Fold change vs veh, ZNF146 / RFU, ZNF330 / Fold change vs veh, ZNF330 / RFU, GPN3 / Fold change vs veh, GPN3 / RFU, C9orf123 / Fold change vs veh, C9orf123 / RFU, N4BP2L2 / Fold change vs veh, N4BP2L2 / RFU, ARFIP1 / Fold change vs veh, ARFIP1 / RFU, FAM179B / Fold change vs veh, FAM179B / RFU, BCL10 / Fold change vs veh, BCL10 / RFU, UHRF1BP1L / Fold change vs veh, UHRF1BP1L / RFU, BET1 / Fold change vs veh, BET1 / RFU, CNOT2 / Fold change vs veh, CNOT2 / RFU, ZNF268 / Fold change vs veh, ZNF268 / Fold change vs veh, ZNF507 / RFU, DGCR2 / Fold change vs veh, DGCR2 / RFU, WDSUB1 / Fold change vs veh, WDSUB1 / Fold change vs veh, HSP90B1 /// MIR3652 / RFU, ADSS / Fold change vs veh, ADSS / RFU, GK / Fold change vs veh, GK / RFU, ZNF148 / Fold change vs veh, ZNF148 / RFU, TAF9 / Fold change vs veh, TAF9 / RFU, SLC1A5 / Fold change vs veh, SLC1A5 / RFU, SLMO2 / Fold change vs veh, SLMO2 / RFU, ABCC4 / Fold change vs veh, ABCC4 / RFU, LOC101060439 /// RAP1B / Fold change vs veh, LOC101060439 /// RAP1B / RFU, RFX7 / Fold change vs veh, RFX7 / RFU, GTPBP10 / Fold change vs veh, GTPBP10 / RFU, CNEP1R1 / Fold change vs veh, CNEP1R1 / RFU, BIVM-ERCC5 /// ERCC5 / Fold change vs veh, BIVM-ERCC5 /// ERCC5 / RFU, ILF3 / Fold change vs veh, ILF3 / RFU 11762660_at / Fold change /veh 11762660_at / RFU VCAN (11757783_s_at) / Fold change /veh VCAN (11757783_s_at) / RFU DDX43 (11728927_at) / Fold change /veh DDX43 (11728927_at) / RFU KRT8 (11758188_x_at) / Fold change /veh KRT8 (11758188_x_at) / RFU NKD1 (11759106_at) / Fold change /veh NKD1 (11759106_at) / RFU SRD5A1 (11742802_a_at) / Fold change /veh SRD5A1 (11742802_a_at) / RFU TPSAB1 /// TPSB2 (11721975_s_at) / Fold change /veh TPSAB1 /// TPSB2 (11721975_s_at) / RFU GSTM3 (11746129_a_at) / Fold change /veh GSTM3 (11746129_a_at) / RFU IL23R (11737362_x_at) / Fold change /veh IL23R (11737362_x_at) / RFU TMEM51 (11727254_a_at) / Fold change /veh TMEM51 (11727254_a_at) / RFU PIWIL2 (11732686_x_at) / Fold change /veh PIWIL2 (11732686_x_at) / RFU ORM1 (11744905_x_at) / Fold change /veh ORM1 (11744905_x_at) / RFU CCDC152 (11743942_at) / Fold change /veh CCDC152 (11743942_at) / RFU ECM1 (11717891_a_at) / Fold change /veh ECM1 (11717891_a_at) / RFU IL23R (11748794_a_at) / Fold change /veh IL23R (11748794_a_at) / RFU TNFAIP8L3 (11732012_x_at) / Fold change /veh TNFAIP8L3 (11732012_x_at) / RFU MBOAT4 (11741988_at) / Fold change /veh MBOAT4 (11741988_at) / RFU 11764193_at / Fold change /veh 11764193_at / RFU TMEM53 (11763286_at) / Fold change /veh TMEM53 (11763286_at) / RFU MAGEB2 (11727129_at) / Fold change /veh MAGEB2 (11727129_at) / RFU TMEM200A (11744735_a_at) / Fold change /veh TMEM200A (11744735_a_at) / RFU CCDC152 (11751479_a_at) / Fold change /veh CCDC152 (11751479_a_at) / RFU FAM211A (11726209_a_at) / Fold change /veh FAM211A (11726209_a_at) / RFU RGS16 (11746705_a_at) / Fold change /veh RGS16 (11746705_a_at) / RFU VCAN (11755009_s_at) / Fold change /veh VCAN (11755009_s_at) / RFU RHOB (11743442_s_at) / Fold change /veh RHOB (11743442_s_at) / RFU RGS16 (11720943_a_at) / Fold change /veh RGS16 (11720943_a_at) / RFU RGS16 (11720944_at) / Fold change /veh RGS16 (11720944_at) / RFU, VPS4B / Fold change vs veh, VPS4B / RFU, CREB1 / Fold change vs veh, CREB1 / RFU, DNAJC13 / Fold change vs veh, DNAJC13 / RFU, GNAQ / Fold change vs veh, GNAQ / RFU, CDK5R1 / Fold change vs veh, CDK5R1 / RFU, ZRANB3 / Fold change vs veh, ZRANB3 / RFU, CUL4A / Fold change vs veh, CUL4A / RFU, CCNY / Fold change vs veh, CCNY / RFU, UFL1 / Fold change vs veh, UFL1 / RFU, COG3 / Fold change vs veh, COG3 / RFU, DIAPH2 / Fold change vs veh, DIAPH2 / RFU, SKA2 / Fold change vs veh, SKA2 / RFU, AFF3 / Fold change vs veh, AFF3 / RFU, LMF1 / Fold change vs veh, LMF1 / RFU, IPO11 / Fold change vs veh, IPO11 / RFU, DFFB / Fold change vs veh, DFFB / RFU, FOXP1 / Fold change vs veh, FOXP1 / RFU, CARD8 / Fold change vs veh, CARD8 / RFU, STRN3 / Fold change vs veh, STRN3 / RFU, ADK / Fold change vs veh, ADK / RFU, RASSF2 / Fold change vs veh, RASSF2 / RFU, WIPF1 / Fold change vs veh, WIPF1 / RFU, LARP1B / Fold change vs veh, LARP1B / RFU, RASA1 / Fold change vs veh, RASA1 / RFU, RB1 / Fold change vs veh, RB1 / RFU, PPFIA1 / Fold change vs veh, PPFIA1 / RFU, MAT2A / Fold change vs veh, MAT2A / RFU, CCT5 / Fold change vs veh, CCT5 / RFU, WDR92 / Fold change vs veh, WDR92 / RFU, CUX1 / Fold change vs veh, CUX1 / RFU, TTC7A / Fold change vs veh, TTC7A / RFU, TMEM135 / Fold change vs veh, TMEM135 / RFU, DEPTOR / Fold change vs veh, DEPTOR / RFU, CPM / Fold change vs veh, CPM / RFU, DNAJB6 / Fold change vs veh, DNAJB6 / RFU, CACNA2D3 / Fold change vs veh, CACNA2D3 / RFU, DTX4 / Fold change vs veh, DTX4 / RFU, TFCP2 / Fold change vs veh, TFCP2 / RFU, GMCL1 /// GMCL1P1 / Fold change vs veh, GMCL1 /// GMCL1P1 / RFU, AEBP2 / Fold change vs veh, AEBP2 / RFU, SNHG1 /// SNORD22 /// SNORD25 /// SNORD26 /// SNORD27 /// SNORD28 /// SNORD29 /// SNORD31 / Fold change vs veh, SNHG1 /// SNORD22 /// SNORD25 /// SNORD26 /// SNORD27 /// SNORD28 /// SNORD29 /// SNORD31 / Fold change (Aza/veh), C12orf56 (ProbeSet 11735607_a_at) / Fold change (ACY-1035/veh), C12orf56 (ProbeSet 11735607_a_at) / Fold change (Aza/veh), FGFR1OP (ProbeSet 11751329_s_at) / Fold change (ACY-1035/veh), FGFR1OP (ProbeSet 11751329_s_at) / Fold change (Aza/veh), VPS36 (ProbeSet 11739960_a_at) / Fold change (ACY-1035/veh), VPS36 (ProbeSet 11739960_a_at) / RFU SYPL1 (11715823_x_at) / Fold change /veh SYPL1 (11715823_x_at) / RFU IGFBP7 (11715501_s_at) / Fold change /veh IGFBP7 (11715501_s_at) / RFU REEP3 (11722064_at) / Fold change /veh REEP3 (11722064_at) / RFU IGLL1 (11728026_x_at) / Fold change /veh IGLL1 (11728026_x_at): dose or concentration left out as unconfirmed
Conditions: ProbeSet 11745789_a_at; LIST D

Nc1ccc(-c2cccs2)cc1NC(=O)c1ccc2c(c1)cc(C1CC1)n2CCN1CCOCC1 [ACY-1035]
RFU, TMEM135: 185.11 RFU
